Measured values taken from ChEMBL document CHEMBL1157539, “Thousands of chemical starting points for antimalarial lead identification” (Nature, 2010).

system: Plasmodium falciparum; assay: GSK_TCMDC: Inhibition of Plasmodium falciparum 3D7 in whole erythrocytes, using parasite LDH activity as an index of growth.; type: functional, organism-based; conditions: Plasmodium falciparum, 3D7

SMILES | XC50
Cc1cc(NC(=O)c2ccco2)ccc1OC1CCN(Cc2ccccc2)CC1 | 531 nM
Cc1nc2ccc(-c3nc4cc(N)ccc4[nH]3)cc2[nH]1 | 233 nM
O=C(N[C@@H](Cc1ccccc1)[C@H](O)CNCCC(F)(F)F)c1cccc(OCC2CC2)c1 | 616 nM
COc1ccc(CCNc2ccnc3cc(Cl)ccc23)cc1OC | 891 nM
CC(C)Nc1nc(NCCc2c[nH]cn2)nc(NCc2ccc(Cl)c(Cl)c2)n1 | 962 nM
O=C(CCCCCNC(=O)c1ccc(O)c(-c2ccc(Cl)c(Cl)c2)c1)NCCN1CCOCC1 | 830 nM
CCOC(=O)CCCN1C(=O)CN=C(c2ccccc2)c2cc(Cl)ccc21 | 778 nM
Cc1c(CCc2cccc(F)c2F)[nH]c2ccccc2c1=O | 822 nM
Nc1nc(N)c2c(ccc3c2ccn3Cc2ccc(OCc3ccccc3)cc2)n1 | 933 nM
O=C(Nc1ccc(Cl)c(Cl)c1)N[C@H]1CCN(CCCCCNC(=O)C2CC2c2ccc(Cl)c(Cl)c2)C1 (some centres not stated) | 1030 nM
CC1(C)N=C(N)N=C(N)N1c1cc(Cl)c(Cl)cc1Cl | 181 nM
CN(C)CCNC(=O)c1cccc(-c2cnc3ccc(NCc4ccc(Cl)c(Cl)c4)nn23)c1 | 698 nM
CC(C)CCN1CCC(Oc2ccc(NC(=O)c3ccco3)cc2Cl)CC1 | 676 nM
CCN1CCN(c2cc(C)c3cc(NC(=O)c4ccc(N(CC)CC)cc4)ccc3n2)CC1 | 962 nM
Cc1cccn2c(=O)c3cc(C(=O)NC(C)c4ccccc4)c(=N)n(CCN4CCOCC4)c3nc12 (configuration not stated) | 823 nM
COc1cc(C)ccc1S(=O)(=O)N1CCCCC(c2ccc(C(F)(F)F)cc2)=N1 | 775 nM
O=C(Nc1cccc(C(F)(F)F)c1)NC1CCN(c2ccnc3ccccc23)CC1 | 988 nM
Cc1ccccc1N1CCN(c2ccc(C(=O)Nc3ccccc3)cc2)CC1 | 723 nM
CCOc1ccc(C(=O)Nc2cc(Br)c3c(c2)CNCC3)cc1Cl | 1040 nM
O=C(NC1CC1)c1cnc(N2CCC(COc3cccc(F)c3)CC2)c(Cl)c1 | 1200 nM
COc1ccc(-c2ccc(CNC(=O)c3cccc(C#N)c3)c(F)c2)cc1CN1CCCN(C)CC1 | 804 nM
O=C(c1ccc(Cl)cc1)C1CCN(CCCOc2ccc3c(c2)CCNCC3)CC1 | 1150 nM
Cc1cccc2nc(-c3ccc(-c4ccc(NC(=O)C(C)CN5CCN(C)CC5)cc4)s3)[nH]c12 (configuration not stated) | 731 nM
CCCCCCCCCCS(=O)(=O)N[C@H](COCc1cccc(Oc2ccccc2)c1)COP(=O)(O)OC | 1020 nM
CN1CC[C@@H](Oc2cc(C(=O)NCc3ccc(Cl)c(Cl)c3)ccc2C(F)(F)F)C1 | 1250 nM

SMILES | XC50
Cc1noc(C)c1CN1CCCN(c2ccc3c(c2)CCN(Cc2ccc(-c4ncc[nH]4)cc2)CC3)CC1 | 864 nM
O=C(Nc1cccc(-c2cc(-c3c(Cl)cccc3Cl)no2)c1)c1cncc(-c2cccs2)c1 | 952 nM
O=C(NCC1CCC(C(=O)NCc2cccc(C(F)(F)F)c2)CC1)c1ccc(O)c(-c2ccc(Cl)c(Cl)c2)c1 (configuration not stated) | 711 nM
CN1CCN(c2cc3c(cc2Cl)CCN3C(=O)Nc2ccc(NC(=O)c3ccc(C(F)(F)F)cc3)cc2)CC1 | 515 nM
CC(=O)Nc1ccc(C(=O)NC2CCN(c3ccnc4cc(Cl)ccc34)CC2)cc1 | 357 nM
COc1ccc(Nc2nccc(-c3ccc4c(-c5ccsc5)cnc(N)c4c3)n2)cc1 | 236 nM
CN1CCN(CC(=O)Nc2cccc(-c3cccc(-c4nc5cc(F)ccc5[nH]4)c3)c2)CC1 | 741 nM
CCOC(=O)C1=C(C)NC2=C(C(=O)C(C(=O)OC)C(C)C2)C1c1cc(Br)c(OCC)c(OC)c1 (configuration not stated) | 701 nM
Fc1ccc2[nH]c(-c3ccc(-c4ccc(CN5CCN(CCN6CCOCC6)CC5)cc4)cc3)nc2c1 | 183 nM
COc1ccccc1C1CCN(C2CCC(NC(=O)c3ccc4[nH]c(-c5ccc(C)cc5)nc4c3)CC2)CC1 (configuration not stated) | 308 nM
CC(C)Nc1nc(NCCc2c[nH]cn2)nc(Nc2ccc(Oc3ccccc3)cc2)n1 | 887 nM
CCOc1cc2ccccc2cc1CNCCCCCCNCc1cc2ccccc2cc1OCC | 979 nM
CCC1CN2CCc3c([nH]c4ccc(OC)cc34)C2CC1CC1NCCc2cc(OC)c(OC)cc21 (configuration not stated) | 862 nM
CN(c1cc(NC(=O)c2cccs2)ccn1)C1CCN(Cc2cccc(C#N)c2)CC1 | 1260 nM
Cc1nc2ccc3ccc(CNc4ccc(C(=O)N[C@@H](CCC(=O)O)C(=O)N[C@@H](Cc5cccs5)C(=O)O)c(F)c4)cc3c2c(=O)[nH]1 | 787 nM
O=C(c1ccc(-c2ccc(Cl)cc2)o1)N1CCc2cc3nccc(N4CCN5CCC[C@H]5C4)c3cc21 | 170 nM
COc1cc2ccccc2c(OC)c1CNCCCCCCNCc1c(OC)cc2ccccc2c1OC | 988 nM
CC(C)CC(C)NC(=O)C1Cc2c([nH]c3cc(Cl)ccc23)C2(CCN(CCc3ccccc3)CC2)N1 (configuration not stated) | 815 nM
CCCCCCN(CCCCCC)CC(O)c1cc(-c2ccc(Cl)cc2)nc2c(C)cc(C)cc12 (configuration not stated) | 67.3 nM
CC(C)COc1cc(C(=O)Nc2cnc3ccccc3c2)ccc1[N+](=O)[O-] | 776 nM
Cc1ccc(CC(C)(C)NCC(O)c2cccc(C(F)(F)F)c2)cc1 (configuration not stated) | 836 nM
O=C(Nc1cccc(C(F)(F)F)c1)c1ccc(S(=O)(=O)NC2CCN(CC3CCCCC3)CC2)cc1 | 1160 nM
CC(C)(CC1CCCCC1)NC(=O)[C@H](CC1CCCCC1)Nc1ccc(C#N)c2ccccc12 | 592 nM
O=C(Nc1ccc2c(c1)CCC2)c1nc(N2CCN(c3ccncc3)CC2)ccc1Cl | 1380 nM
N=C(N)NN=Cc1c2ccccc2c(Cl)c2ccc(Cl)cc12 | 225 nM

SMILES | XC50
CN(c1ccc2c(c1)nc(NCc1ccccc1)n2C)c1ccnc(Nc2ccc(CS(C)(=O)=O)cc2)n1 | 841 nM
COc1ccc(NC(=O)/C=C/c2ccccc2Cl)cc1OCCN1CCC(Cc2cc3ccccc3[nH]2)CC1 | 903 nM
N#CCCN1CCN(Cc2ccc(-c3ccc(-c4nc5cc(F)ccc5[nH]4)s3)cc2)CC1 | 659 nM
COc1ccccc1C1CCN(C2CCC(NC(=O)/C=C/c3cccc(Cl)c3)CC2)CC1 (configuration not stated) | 1030 nM
COc1ccccc1CNC(=O)C(=O)Nc1c(-c2ccccc2)[nH]c2ccccc12 | 737 nM
O=C(Nc1ccc(-c2nc3ccccc3[nH]2)cc1)c1ccc(Cl)c([N+](=O)[O-])c1 | 802 nM
COc1ccc(C2CCN(CCN3CCC(NC(=O)c4cccc(-c5ccncc5)c4)CC3)CC2)c(OC)c1 | 797 nM
Cc1ccn2c(N(Cc3ccccc3)C(=O)c3ccc(Cl)c(Cl)c3)c(-c3ccccc3)nc2c1 | 987 nM
CCOC(=O)NC1=NC(=N)N(OCc2ccc(Cl)c(Cl)c2)C(C)(C)N1 | 40.7 nM
Cc1ccc2[nH]c(-c3cc(-c4cccc(CCN5CCOCC5)c4)cnc3N)nc2c1 | 170 nM
COc1cccc(C2(c3cccc(OC)c3)N=C(N)N(CCCc3ccccc3)C2=O)c1 | 260 nM
C=CCNC(CCCCC)c1ccc(OCCOc2ccc(C(CCCCC)NCC=C)cc2)cc1 (configuration not stated) | 567 nM
C#CCNCc1ccc(-c2cccc(-c3nc4cccc(C)c4[nH]3)c2)cc1 | 818 nM
Cc1cccc2nc(-c3ccc(-c4ccc(CN5CCN(C6CCN(C)CC6)CC5)cc4)cc3)[nH]c12 | 100 nM
CNCCc1c(O)ccc2ccccc12 | 804 nM
Cc1c[nH]c(-c2cccc(C(=O)NC3CCC(CCN4CCc5ccc(C#N)cc5CC4)CC3)c2)n1 (configuration not stated) | 301 nM
COc1cc2nc(N3CCC(CNC(=O)c4ccc(-c5ccc(-c6noc(C)n6)cc5)cc4)CC3)nc(N)c2cc1OC | 139 nM
Cc1ncccc1-c1cccc2c(NC(=O)Nc3ccc4nccc(N5CCN(C)CC5)c4c3)cccc12 | 632 nM
O=C(Cc1cccc(O)c1)NCC(Cc1ccc(O)cc1)c1ccccc1 (configuration not stated) | 643 nM
O=C(NCCNc1ccnc(Nc2ccc(F)cc2)n1)c1cc2ccccc2s1 | 755 nM
Cc1c(C(=O)C2CC2CN2CCC(N3CCCC3)CC2)sc2ccccc12 (configuration not stated) | 1400 nM
N#Cc1cncc(-c2nc3c(N4CCC(N5CCCC5)CC4)cccc3n2CCNCc2ccccc2)c1 | 874 nM
COc1cc(C(=O)NC2CC(C)(C)N(C)C(C)(C)C2)ccc1-c1cc2cc(Cl)c(Cl)cc2[nH]1 | 1140 nM
N#Cc1ccccc1Sc1ccccc1C(=O)Nc1ccc2ccccc2n1 | 507 nM
CN(C)c1ccc(C=CC(=O)NC(=O)c2ccccc2O)cc1 | 227 nM

SMILES | XC50
Cc1cc(N[C@@H](Cc2ccccc2)C(=O)NCCOc2ccccc2)nc(NCCc2cccs2)n1 | 997 nM
COc1ccc(-n2cc(C(=O)c3cc(Br)ccc3O)cc(C#N)c2=O)cc1Cl | 791 nM
Cc1cc(C(=O)CSc2nc3ccccc3n2-c2ccccc2)c(C)n1C1CCS(=O)(=O)C1 (configuration not stated) | 1000 nM
COC(=O)C1(NC(=O)c2ccc(-n3nc(C)c(-c4ccccc4)c3N)cc2)CCCC1 | 370 nM
Cn1c(/C=C/C(=O)NC2CCC(CCN3CCc4ccc(C#N)cc4CC3)CC2)cc2ccccc21 (configuration not stated) | 733 nM
CN(C)CCCOc1cccc(CCNCc2cccc(Oc3ccc(Cl)cc3)c2)c1 | 1010 nM
CCNC(=O)N[C@@H]1CN[C@@H](C#Cc2cc3c(Nc4ccc(OCc5cccc(F)c5)c(Cl)c4)ncnc3s2)C1 | 1010 nM
CCNC(=O)Nc1ccc(-c2ccc(-c3nc4cccc(C)c4[nH]3)s2)cc1 | 1070 nM
COc1ccc2nccc([C@@H](O)CN3CCC(NCc4[nH]c5ccccc5c4F)CC3)c2c1 | 247 nM
O=C(Nc1ccc2c(c1)OCO2)NC1CCN(c2ccnc(NCc3ccc(F)cc3)n2)CC1 | 943 nM
CCN(CCCN1CCCCC1)c1cc(C)nc(Nc2cc(Cl)ccc2C)n1 | 633 nM
O=C(Nc1cccc(-c2cccc(-c3nc4ccccc4[nH]3)c2)c1)c1csnn1 | 921 nM
O=C(/C=C/c1ccc(Cl)c(Cl)c1)NCCCCCN1CCC(NC(=O)NC2CCCCC2)CC1 | 557 nM
COc1cc2nccc(Nc3ccc(OCc4ccccc4)cc3)c2cc1OC | 203 nM
CN(C)CCCNCc1ccc(-c2ccc(C(F)(F)F)cc2)cc1 | 873 nM
O=C(Nc1cccc(-c2ccc(-c3nc4cc(F)ccc4[nH]3)cc2)c1)c1ccncc1 | 278 nM
COc1ccc(-n2nc(C)c3c2NC(=O)CC3c2ccccc2OCc2ccc(F)cc2)cc1 (configuration not stated) | 855 nM
Cc1cc(-c2ccc3c(c2)CCN(CCC2CCC(NC(=O)/C=C/c4ccc(F)cc4)CC2)CC3)on1 (configuration not stated) | 724 nM
COc1cc(OCCCCCCON2C(=N)N=C(N)NC2(C)C)cc(OC)c1OC | 3.2 nM
O=c1[nH]ccc2nc(N[C@@H]3CCNC3)nc(Nc3ccc4c(c3)S(=O)(=O)CC4)c12 | 377 nM
CCCCCC1c2[nH]c3ccccc3c2CCN1C(=O)OCc1ccccc1 (configuration not stated) | 389 nM
Cc1cc(F)ccc1Nc1nc(N(C)c2ccccc2)c2cc(OCCN(C)C)ccc2n1 | 786 nM
